Experimental data from patent publication US9499493B2, “2,4-pyrimidinediamine compounds and their uses” (Rigel Pharmaceuticals, Inc., priority 2002, dated 2016).

Key:
[1] = tested on: cultured human mast cells (CHMC); assay: CHMC low cell density IgE activation: tryptase assay; type: cell-based; conditions: anti-IgE
How it was run: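 CHMC resuspended in pre-warmed MT buffer at 1000-1500 cells/well (donor-dependent) and preincubated 1 hr at 37° C, then stimulated with anti-IgE for 30 min at 37° C; unstimulated wells got MT alone. Supernatant tryptase activity read with tryptase substrate after 30 min at room temperature.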

[2] = tested on: cultured human mast cells (CHMC); assay: CHMC low cell density ionomycin activation: tryptase assay; type: cell-based

## CCOC(=O)CNc1cccc(Nc2ncc(F)c(Nc3cccc(NCCO)c3)n2)c1 [R950229, N2-(Ethoxycarbonylmethyleneaminophenyl)-5-fluoro-N4-[3-(2-hydroxyethylamino)phenyl]-2,4-pyrimidinediamine]
[1]
  IC50: 0.98 µM
[2]
  IC50: > 10 µM

## CNC(=O)COc1ccc(Nc2ncc(C#N)c(Nc3cccc(O)c3)n2)cc1 [R925844, 5-Cyano-N4-(3-hydroxyphenyl)-N2-[4-(N-methylamino)carbonylmethyleneoxyphenyl]-2,4-pyrimidinediamine]
[1]
  IC50: 5.1 µM
[2]
  IC50: > 10 µM

## Oc1cccc(Nc2ccnc(Nc3ccc(OCc4nn[nH]n4)cc3)n2)c1 [R920819, N4-(3-Hydroxyphenyl)-N2-[4-(1H,1,2,3,4-tetrazol-5-yl)methyleneoxyphenyl]-2,4-pyrimidinediamine]
[1]
  IC50: 10 µM
[2]
  IC50: > 10 µM

## CON=C(N)COc1ccc(Nc2ncc(F)c(Nc3cccc(O)c3)n2)cc1 [R945167, 5-Fluoro-N4-(3-hydroxyphenyl)-N2-[4-(2-methoxyimino(amino)ethyleneoxy)phenyl]-2,4-pyrimidinediamine]
[1]
  IC50: 0.761 µM
[2]
  IC50: > 10 µM

## O=C(COc1ccc(Nc2ncc(F)c(Nc3ccc(OCC(=O)N4CCCC4)cc3)n2)cc1)N1CCCC1 [R926563, N2,N4-Bis(4-N-pyrrolidinocarbonylmethyleneoxyphenyl)-5-fluoro-2,4-pyrimidinediamine]
[1]
  IC50: > 10 µM
[2]
  IC50: > 10 µM

## N#Cc1cnc(Nc2ccc(OCC(=O)NCC(O)CO)cc2)nc1Nc1cccc(O)c1 (centres unmarked) [R925846, 5-Cyano-N4-(3-hydroxyphenyl)-N2-[4-(N-2,3-dihydroxypropylamino)carbonylmethyleneoxyphenyl]-2,4-pyrimidinediamine]
[1]
  IC50: > 10 µM
[2]
  IC50: > 10 µM

## CNC(=O)C1Cc2cc(Nc3ncc(F)c(Nc4ccc5c(c4)OC(F)(F)O5)n3)ccc2O1 (racemic) [R927041, (±)-N2-[2,3-Dihydro-(N-methylamino)carbonylbenzofuran-5-yl]-N4-(3,4-difluoromethyleneoxyphenyl)-5-fluoro-2,4-pyrimidinediamine]
[1]
  IC50: 0.788 µM
[2]
  IC50: > 10 µM

## O=C(NCCO)c1cc2cc(Nc3ncc(F)c(Nc4ccc5oc(C(=O)NCCO)cc5c4)n3)ccc2o1 [R950167, N2,N4-Bis[2-(2-hydroxyethyleneamoinocarbonyl)-benzofurane-5-yl]-5-fluoro-2,4-pyrimidinediamine]
[1]
  IC50: > 10 µM
[2]
  IC50: > 10 µM

## CNC(=O)CCn1ncc2ccc(Nc3ncc(F)c(Nc4ccc(OC(C)C)cc4)n3)cc21 [R935291, 5-Fluoro-N4-(4-isopropoxyphenyl)-N2-[1-[2(N-methylamino)carbonyl]ethyl-indazoline-6-yl]-2,4-pyrimidinediamine]
[1]
  IC50: 1.36 µM
[2]
  IC50: > 10 µM

## O=C(COc1cccc(Nc2ncc(F)c(Nc3ccc4c(c3)NCCO4)n2)c1)NCCCO [R909252, N4-(1,4-Benzoxazin-6-yl)-5-fluoro-N2-[3-(N-3-hydroxypropylamino)carbonylmethyleneoxyphenyl]-2,4-pyrimidinediamine]
[1]
  IC50: 0.248 µM
[2]
  IC50: > 10 µM

## Cn1ncc2cc(Nc3ncc(F)c(Nc4ccc(F)c(F)c4)n3)ccc21 [R935358, N4-(3,4-Difluorophenyl)-5-fluoro-N2-(1-methylindazoline-5-yl)-2,4-pyrimidinediamine]
[1]
  IC50: > 10 µM
[2]
  IC50: > 10 µM

## O=C1OCc2ccc(Nc3ncc(F)c(Nc4ccc5c(c4)OCCO5)n3)cc21 [R926786, N2-(1,1-Dihydroisobenzofuran-1-one-6-yl)-N4-(3,4-ethylenedioxyphenyl)-5-fluoro-2,4-pyrimidinediamine]
[1]
  IC50: 0.504 µM
[2]
  IC50: > 10 µM

## Cn1ncc2cc(Nc3ncc(F)c(Nc4ccc5c(c4)NC(=O)C(C)(C)O5)n3)ccc21 [R940338, N4-[(2,2-Dimethyl-4H-benzo[1,4]oxazin-3-one)-6-yl]-5-fluoro-N2-(1-methylindazolin-5-yl)-2,4-pyrimidinediamine]
[1]
  IC50: 0.073 µM
[2]
  IC50: > 10 µM
